Earlier results as cited in patent US12435156B2, “Methods for treating neuroblastoma with combination therapy” (MEMORIAL SLOAN-KETTERING CANCER CENTER, priority 2018, dated 2025).

How the values were obtained:
[1] = not given; remark: listed apart in the source
[2] = human, in vivo
topoisomerase I = molecular target: T1, topoisomerase I (Homo sapiens, UniProt P11387)
T1 sequence (P11387 1-765): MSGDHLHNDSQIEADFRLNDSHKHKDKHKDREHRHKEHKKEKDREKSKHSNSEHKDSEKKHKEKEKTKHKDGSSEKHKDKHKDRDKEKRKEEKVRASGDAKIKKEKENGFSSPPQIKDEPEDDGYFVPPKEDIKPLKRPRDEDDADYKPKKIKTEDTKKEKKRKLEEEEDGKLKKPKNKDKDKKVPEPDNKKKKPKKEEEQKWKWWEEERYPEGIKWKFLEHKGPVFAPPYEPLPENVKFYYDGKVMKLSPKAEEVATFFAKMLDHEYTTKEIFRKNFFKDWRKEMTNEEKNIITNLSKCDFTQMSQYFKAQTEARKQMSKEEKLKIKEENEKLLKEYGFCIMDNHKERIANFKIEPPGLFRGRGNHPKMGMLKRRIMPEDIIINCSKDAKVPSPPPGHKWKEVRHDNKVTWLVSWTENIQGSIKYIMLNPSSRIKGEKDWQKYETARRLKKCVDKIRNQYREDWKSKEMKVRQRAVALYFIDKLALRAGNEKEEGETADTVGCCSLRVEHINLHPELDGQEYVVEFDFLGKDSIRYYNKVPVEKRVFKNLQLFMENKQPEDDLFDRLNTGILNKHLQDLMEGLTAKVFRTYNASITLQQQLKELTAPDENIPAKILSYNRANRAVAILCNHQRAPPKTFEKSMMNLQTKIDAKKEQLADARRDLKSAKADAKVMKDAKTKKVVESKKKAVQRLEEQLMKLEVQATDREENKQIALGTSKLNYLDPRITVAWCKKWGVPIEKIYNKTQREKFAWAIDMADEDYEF

[3] = not given; remark: listed apart in the source
[4] = not given; remark: listed apart in the source

Compound: NC(=O)c1[nH]cnc1N [AIC]
- Exposure relative to the AUC of temozolomide (in vivo): 23%

Compound: CCc1c2c(nc3ccc(OC(=O)N4CCC(N5CCCCC5)CC4)cc13)-c1cc3c(c(=O)n1C2)COC(=O)[C@]3(O)CC [Irinotecan, (S)-4,11-diethyl-4-hydroxy-3,14-dioxo-3,4,12,14-tetrahydro-1H-pyrano[3′,4′:6,7]indolizino[1,2-b]quinolin-9-yl [1,4′-bipiperidine]-1′-carboxylate]
- Water solubility [1]: water-soluble
- Toxicity associated with treatment [2]: severe diarrhea, myelosuppression, and neutropenia

Compound: CCc1c2c(nc3ccc(O)cc13)-c1cc3c(c(=O)n1C2)COC(=O)[C@]3(O)CC [SN-38, 7-ethyl-10-hydroxycamptothecin]
- Topoisomerase I inhibitor potency/activity (topoisomerase I): much higher potency than irinotecan

Compound: CCc1c2c(nc3ccc(O[C@@H]4O[C@H](C(=O)O)[C@@H](O)[C@H](O)[C@H]4O)cc13)-c1cc3c(c(=O)n1C2)COC(=O)[C@]3(O)CC [SN-38G, SN-38 glucuronide]
- Topoisomerase I inhibitor potency/activity (topoisomerase I): inactive

Compound: Cn1nnc2c(C(N)=O)ncn2c1=O [Temozolomide, 3,4-dihydro-3-methyl-4-oxoimidazo[5,1-d]-as-tetrazine-8-carboxamide]
- Mean apparent volume of distribution (% CV=13%): 0.4 L/kg
- Kinetics over the therapeutic dosing range (in vivo): linear kinetics
- Overall clearance (in vivo): about 5.5 L/hr/m^2
- Absorption after oral administration (oral): rapidly and completely absorbed
- Time of peak plasma concentrations (oral administration): 1 h
- Administered total radioactive dose recovered in feces (over 7 days): 0.8%
- Administered total radioactive dose recovered in urine (over 7 days): 37.7%
- Administered total radioactive dose recovered (over 7 days, total): About 38%
- Mean percent bound of drug-related total radioactivity (human plasma proteins): 15%
- Role of cytochrome P450 enzymes in metabolism (Cytochrome P450 enzymes): only a minor role
- Stability at physiologic pH [3]: spontaneously hydrolyzed
- Dose-limiting side effects [2]: hematologic toxicity, myelosuppression, anemia, and leukopenia

Compound: Cn1nnc2c(C(=O)O)ncn2c1=O [temozolomide acid metabolite]
- Recovery of radioactivity in urine as this species (after temozolomide radioactive dose): 2.3%

Compound: sargramostim: Yeast-derived human recombinant granulocyte-macrophage colony stimulating factor
- Storage of liquid once the vial has been entered ([4]; 2-8° C.): up to 20 days
- pH of reconstituted solution ([4]; 250 mcg vial reconstituted with 0.5 mL sterile water, 500 mcg/mL): 7.4±0.3
- Time to administration following reconstitution ([4]; single-use 250 mcg vials, no preservative): ≤ 6 h
